This assay has as its target Cyclin-dependent kinase 14 (Homo sapiens, UniProt O94921). In words: In vitro Kinase Assay. As for the experimental part: Lanthascreen Eu kinase binding assays were conducted for Cdk14/CycY largely as performed in the commercial assay service by Life Technologies, but included a 30 minute pre-incubation step of the kinase with candidate compounds to facilitate covalent bond formation.

These results are taken from BindingDB's records for patent US12187701 (Dana-Farber Cancer Institute, 2025).

Sequence of Cyclin-dependent kinase 14 (O94921 whole entry): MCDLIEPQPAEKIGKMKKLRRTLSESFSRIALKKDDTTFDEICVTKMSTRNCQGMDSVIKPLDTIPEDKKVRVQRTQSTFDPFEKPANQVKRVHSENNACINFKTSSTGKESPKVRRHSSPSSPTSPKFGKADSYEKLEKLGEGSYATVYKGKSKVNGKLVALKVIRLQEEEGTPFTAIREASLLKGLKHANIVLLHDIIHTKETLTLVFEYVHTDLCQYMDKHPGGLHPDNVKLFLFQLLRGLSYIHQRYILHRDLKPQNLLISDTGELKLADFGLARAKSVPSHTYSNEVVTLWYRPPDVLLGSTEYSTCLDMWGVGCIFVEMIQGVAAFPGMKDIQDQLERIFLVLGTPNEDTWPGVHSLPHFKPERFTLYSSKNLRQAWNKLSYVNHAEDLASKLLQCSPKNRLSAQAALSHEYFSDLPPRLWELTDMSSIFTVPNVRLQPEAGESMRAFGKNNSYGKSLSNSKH

As a reminder, the IC50 is the midpoint of a concentration-inhibition curve. Low readings indicate higher potency, high ones lower potency. As to `CN(C)C/C=C/C(=O)Nc1cccc(CNC(=O)c2n[nH]cc2NC(=O)c2c(Cl)cccc2Cl)c1` [US12187701, Compound FMF-05-064-2], the IC50 worked out at 0.108 µM.
